Test system: 616215-338-R-J1-PDC tumor spheroids, viability
Assay: Anticancer human tumor 616215-338-R-J1-PDC patient-derived colon adenocarcinoma cell line growth inhibition [GQUAD]
Settings: spheroids with HUVEC and MSC; for IC50: curve of first compound; for viability, T/C: stronger effect = lower value
How it was run: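 Viability of tumor cells grown as complex spheroids with endothelial and stromal cells, exposed to drug combinations. Top concentration at or near clinical Cmax (else 10 microM), diluted in half-log increments.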

[1] = second compound 0.0316 µM, first compound 0.0316 µM
[2] = second compound 0.0316 µM, first compound 0.1 µM
[3] = second compound 0.0316 µM, first compound 0.316 µM
[4] = second compound 0.0316 µM, first compound 1 µM
[5] = second compound 0.0316 µM, first compound 3.16 µM
[6] = second compound 0.0316 µM, first compound 10 µM
[7] = second compound 0.1 µM, first compound 0.0316 µM
[8] = second compound 0.1 µM, first compound 0.1 µM
[9] = second compound 0.1 µM, first compound 0.316 µM
[10] = second compound 0.1 µM, first compound 1 µM
[11] = second compound 0.1 µM, first compound 3.16 µM
[12] = second compound 0.1 µM, first compound 10 µM
[13] = second compound 0.316 µM, first compound 0.0316 µM
[14] = second compound 0.316 µM, first compound 0.1 µM
[15] = second compound 0.316 µM, first compound 0.316 µM
[16] = second compound 0.316 µM, first compound 1 µM
[17] = second compound 0.316 µM, first compound 3.16 µM
[18] = second compound 0.316 µM, first compound 10 µM
[19] = second compound 1 µM, first compound 0.0316 µM
[20] = second compound 1 µM, first compound 0.1 µM
[21] = second compound 1 µM, first compound 0.316 µM
[22] = second compound 1 µM, first compound 1 µM
[23] = second compound 1 µM, first compound 3.16 µM
[24] = second compound 1 µM, first compound 10 µM
[25] = second compound 3.16 µM, first compound 0.0316 µM
[26] = second compound 3.16 µM, first compound 0.1 µM
[27] = second compound 3.16 µM, first compound 0.316 µM
[28] = second compound 3.16 µM, first compound 1 µM
[29] = second compound 3.16 µM, first compound 3.16 µM
[30] = second compound 3.16 µM, first compound 10 µM
[31] = second compound 10 µM, first compound 0.0316 µM
[32] = second compound 10 µM, first compound 0.1 µM
[33] = second compound 10 µM, first compound 0.316 µM
[34] = second compound 10 µM, first compound 1 µM
[35] = second compound 10 µM, first compound 3.16 µM
[36] = second compound 10 µM, first compound 10 µM
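Also: spheroids exposed to agents for 7 days before readout.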
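For viability, T/C in this document: percent viability relative to DMSO vehicle control wells taken as 100%.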

**Q.** Which IC50 (second compound 0.0316 µM) does the source give for `Cc1cccc(N(C)C(=O)C2C(O)CCN2c2nc(C)cc(C(F)(F)F)c2C#N)c1` (centres undefined) + Cc1[nH]c2ccc(F)cc2c1-c1nc2c3cccnc3c3ncccc3c2[nH]1 here?
**A.** > 10 µM

**Q.** And the IC50 (second compound 0.1 µM)?
**A.** > 10 µM

**Q.** And the IC50 (second compound 0.316 µM)?
**A.** > 10 µM

**Q.** What about the IC50 (second compound 1 µM) of the same compound?
**A.** > 10 µM

**Q.** And the IC50 (second compound 3.16 µM)?
**A.** > 10 µM

**Q.** And the IC50 (second compound 10 µM)?
**A.** > 10 µM

**Q.** And the viability, T/C [1]?
**A.** 92.8%

**Q.** What about the viability, T/C [2] of the same compound?
**A.** 102%

**Q.** And the viability, T/C [3]?
**A.** 93.7%

**Q.** What about the viability, T/C [4] of the same compound?
**A.** 87.6%

**Q.** What about the viability, T/C [5] of the same compound?
**A.** 101%

**Q.** And the viability, T/C [6]?
**A.** 104%

**Q.** What about the viability, T/C [7] of the same compound?
**A.** 99.4%

**Q.** And the viability, T/C [8]?
**A.** 93.8%

**Q.** What about the viability, T/C [9] of the same compound?
**A.** 99.1%

**Q.** What about the viability, T/C [10] of the same compound?
**A.** 104%

**Q.** And the viability, T/C [11]?
**A.** 99.6%

**Q.** What about the viability, T/C [12] of the same compound?
**A.** 95.5%

**Q.** What about the viability, T/C [13] of the same compound?
**A.** 91%

**Q.** And the viability, T/C [14]?
**A.** 92.1%

**Q.** What about the viability, T/C [15] of the same compound?
**A.** 99.4%

**Q.** And the viability, T/C [16]?
**A.** 100%

**Q.** What about the viability, T/C [17] of the same compound?
**A.** 97.6%

**Q.** What about the viability, T/C [18] of the same compound?
**A.** 96.6%

**Q.** And the viability, T/C [19]?
**A.** 103%

**Q.** And the viability, T/C [20]?
**A.** 92%

**Q.** What about the viability, T/C [21] of the same compound?
**A.** 96.7%

**Q.** And the viability, T/C [22]?
**A.** 93.9%

**Q.** And the viability, T/C [23]?
**A.** 105%

**Q.** What about the viability, T/C [24] of the same compound?
**A.** 103%

**Q.** What about the viability, T/C [25] of the same compound?
**A.** 94.4%

**Q.** And the viability, T/C [26]?
**A.** 87%

**Q.** And the viability, T/C [27]?
**A.** 96.5%

**Q.** And the viability, T/C [28]?
**A.** 91.6%

**Q.** And the viability, T/C [29]?
**A.** 104%

**Q.** What about the viability, T/C [30] of the same compound?
**A.** 107%

**Q.** What about the viability, T/C [31] of the same compound?
**A.** 108%

**Q.** What about the viability, T/C [32] of the same compound?
**A.** 94.4%

**Q.** What about the viability, T/C [33] of the same compound?
**A.** 96.2%

**Q.** What about the viability, T/C [34] of the same compound?
**A.** 88%

**Q.** And the viability, T/C [35]?
**A.** 107%

**Q.** And the viability, T/C [36]?
**A.** 86.5%

**Q.** Which IC50 (second compound 0.0316 µM) does the source give for `CC1COCCN1c1cc(C2(S(C)(=N)=O)CC2)nc(-c2ccnc3[nH]ccc23)n1` (centres undefined) + Cc1[nH]c2ccc(F)cc2c1-c1nc2c3cccnc3c3ncccc3c2[nH]1 here?
**A.** 9.28 µM

**Q.** What about the IC50 (second compound 0.1 µM) of the same compound?
**A.** 6.38 µM

**Q.** And the IC50 (second compound 0.316 µM)?
**A.** 7.03 µM

**Q.** And the IC50 (second compound 1 µM)?
**A.** 7.04 µM

**Q.** What about the IC50 (second compound 3.16 µM) of the same compound?
**A.** 6.05 µM

**Q.** And the IC50 (second compound 10 µM)?
**A.** 5.79 µM

**Q.** And the viability, T/C [1]?
**A.** 109%

**Q.** And the viability, T/C [2]?
**A.** 108%

**Q.** And the viability, T/C [3]?
**A.** 104%

**Q.** What about the viability, T/C [4] of the same compound?
**A.** 96.1%

**Q.** And the viability, T/C [5]?
**A.** 81.5%

**Q.** What about the viability, T/C [6] of the same compound?
**A.** 47.2%

**Q.** What about the viability, T/C [7] of the same compound?
**A.** 105%

**Q.** What about the viability, T/C [8] of the same compound?
**A.** 116%

**Q.** And the viability, T/C [9]?
**A.** 104%

**Q.** What about the viability, T/C [10] of the same compound?
**A.** 110%

**Q.** And the viability, T/C [11]?
**A.** 69.2%

**Q.** And the viability, T/C [12]?
**A.** 37.6%

**Q.** And the viability, T/C [13]?
**A.** 92.6%

**Q.** What about the viability, T/C [14] of the same compound?
**A.** 110%

**Q.** And the viability, T/C [15]?
**A.** 99.8%

**Q.** And the viability, T/C [16]?
**A.** 101%

**Q.** What about the viability, T/C [17] of the same compound?
**A.** 69.7%

**Q.** What about the viability, T/C [18] of the same compound?
**A.** 41.3%

**Q.** What about the viability, T/C [19] of the same compound?
**A.** 90.7%

**Q.** And the viability, T/C [20]?
**A.** 110%

**Q.** And the viability, T/C [21]?
**A.** 102%

**Q.** What about the viability, T/C [22] of the same compound?
**A.** 95.5%

**Q.** And the viability, T/C [23]?
**A.** 81.5%

**Q.** And the viability, T/C [24]?
**A.** 36.1%

**Q.** And the viability, T/C [25]?
**A.** 107%

**Q.** And the viability, T/C [26]?
**A.** 93.6%

**Q.** And the viability, T/C [27]?
**A.** 92.2%

**Q.** What about the viability, T/C [28] of the same compound?
**A.** 98.7%

**Q.** What about the viability, T/C [29] of the same compound?
**A.** 69.5%

**Q.** And the viability, T/C [30]?
**A.** 35%

**Q.** What about the viability, T/C [31] of the same compound?
**A.** 119%

**Q.** What about the viability, T/C [32] of the same compound?
**A.** 105%

**Q.** What about the viability, T/C [33] of the same compound?
**A.** 93.3%

**Q.** And the viability, T/C [34]?
**A.** 95.1%

**Q.** And the viability, T/C [35]?
**A.** 68.4%

**Q.** And the viability, T/C [36]?
**A.** 32.5%

Source: PubChem BioAssay AID2060493 (Molecular Pharmacology Branch, DTP, NCI, 2025)
